{
  "source": "PubChem BioAssay (NCI)",
  "assay_in_all_cases": "NCI tumour cell line growth inhibition, 48 h",
  "key": {"NCI-H522 lung": {"test_system": "NCI-H522 lung"}, "NCI-H460 lung": {"test_system": "NCI-H460 lung"}, "PC-3 prostate": {"test_system": "PC-3 prostate"}, "BT-549 breast": {"test_system": "BT-549 breast"}, "786-0 renal": {"test_system": "786-0 renal"}, "NCI-H23 lung": {"test_system": "NCI-H23 lung"}, "SK-MEL-5 melanoma": {"test_system": "SK-MEL-5 melanoma"}, "A549 NSCLC": {"test_system": "A549 NSCLC"}, "LOX IMVI melanoma": {"test_system": "LOX IMVI melanoma"}, "SK-MEL-2 melanoma": {"test_system": "SK-MEL-2 melanoma"}, "SR leukemia": {"test_system": "SR leukemia"}, "K-562 leukemia": {"test_system": "K-562 leukemia"}, "U251 CNS": {"test_system": "U251 CNS"}, "MOLT-4 leukemia": {"test_system": "MOLT-4 leukemia"}, "SF-539 CNS": {"test_system": "SF-539 CNS"}, "MDA-MB-231 breast": {"test_system": "MDA-MB-231 breast"}, "RPMI-8226 leukemia": {"test_system": "RPMI-8226 leukemia"}, "HOP-62 NSCLC": {"test_system": "HOP-62 NSCLC"}, "SF-295 CNS": {"test_system": "SF-295 CNS"}, "COLO 205 colon": {"test_system": "COLO 205 colon"}, "KM12 colon": {"test_system": "KM12 colon"}, "DU-145 prostate": {"test_system": "DU-145 prostate"}, "CCRF-CEM leukemia": {"test_system": "CCRF-CEM leukemia"}, "OVCAR-3 ovarian": {"test_system": "OVCAR-3 ovarian"}, "SW-620 colon": {"test_system": "SW-620 colon"}, "IGROV1 ovarian": {"test_system": "IGROV1 ovarian"}, "MDA-N": {"test_system": "MDA-N"}, "HCT-15 colon": {"test_system": "HCT-15 colon"}, "UACC-257 melanoma": {"test_system": "UACC-257 melanoma"}, "HOP-92 NSCLC": {"test_system": "HOP-92 NSCLC"}, "SK-MEL-28 melanoma": {"test_system": "SK-MEL-28 melanoma"}, "OVCAR-5 ovarian": {"test_system": "OVCAR-5 ovarian"}, "UO-31 renal": {"test_system": "UO-31 renal"}, "NCI-H226 lung": {"test_system": "NCI-H226 lung"}, "SK-OV-3 ovarian": {"test_system": "SK-OV-3 ovarian"}, "HCT-116 colon": {"test_system": "HCT-116 colon"}, "EKVX NSCLC": {"test_system": "EKVX NSCLC"}, "ACHN renal": {"test_system": "ACHN renal"}, "SF-268 CNS": {"test_system": "SF-268 CNS"}, "SN12C renal": {"test_system": "SN12C renal"}, "MALME-3M melanoma": {"test_system": "MALME-3M melanoma"}, "SNB-19 CNS": {"test_system": "SNB-19 CNS"}, "HT29 colon": {"test_system": "HT29 colon"}, "HL-60(TB) leukemia": {"test_system": "HL-60(TB) leukemia"}, "UACC-62 melanoma": {"test_system": "UACC-62 melanoma"}, "TK-10 renal": {"test_system": "TK-10 renal"}, "RXF 393 renal": {"test_system": "RXF 393 renal"}, "M14 melanoma": {"test_system": "M14 melanoma"}, "MCF7 breast": {"test_system": "MCF7 breast"}, "CAKI-1 renal": {"test_system": "CAKI-1 renal"}, "T-47D breast": {"test_system": "T-47D breast"}, "HS 578T breast": {"test_system": "HS 578T breast"}, "HCC-2998 colon": {"test_system": "HCC-2998 colon"}, "OVCAR-4 ovarian": {"test_system": "OVCAR-4 ovarian"}, "MDA-MB-435": {"test_system": "MDA-MB-435"}},
  "note": "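In this assay, cells in 96-well plates receive the compound at five concentrations for 48 hours. Endpoints are linearly interpolated between the surrounding concentrations. The concentration for full growth arrest is given as TGI.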",
  "data": [
    {"smiles": "CSC(SC)=C(C#N)C(=O)Nc1ccc(C)cc1", "values": [
      {"measurement": "TGI", "setting": "NCI-H522 lung", "result": "> 100", "unit": "µM"},
      {"measurement": "TGI", "setting": "NCI-H460 lung", "result": "> 100", "unit": "µM"},
      {"measurement": "TGI", "setting": "PC-3 prostate", "result": "> 100", "unit": "µM"},
      {"measurement": "TGI", "setting": "BT-549 breast", "result": "> 100", "unit": "µM"},
      {"measurement": "TGI", "setting": "786-0 renal", "result": "> 100", "unit": "µM"},
      {"measurement": "TGI", "setting": "NCI-H23 lung", "result": "> 100", "unit": "µM"},
      {"measurement": "TGI", "setting": "SK-MEL-5 melanoma", "result": "> 100", "unit": "µM"},
      {"measurement": "TGI", "setting": "A549 NSCLC", "result": "> 100", "unit": "µM"},
      {"measurement": "TGI", "setting": "LOX IMVI melanoma", "result": "> 100", "unit": "µM"},
      {"measurement": "TGI", "setting": "SK-MEL-2 melanoma", "result": "> 100", "unit": "µM"},
      {"measurement": "TGI", "setting": "SR leukemia", "result": "> 100", "unit": "µM"},
      {"measurement": "TGI", "setting": "K-562 leukemia", "result": "> 100", "unit": "µM"},
      {"measurement": "TGI", "setting": "U251 CNS", "result": "> 100", "unit": "µM"},
      {"measurement": "TGI", "setting": "MOLT-4 leukemia", "result": "> 100", "unit": "µM"},
      {"measurement": "TGI", "setting": "SF-539 CNS", "result": "> 100", "unit": "µM"},
      {"measurement": "TGI", "setting": "MDA-MB-231 breast", "result": "> 100", "unit": "µM"},
      {"measurement": "TGI", "setting": "RPMI-8226 leukemia", "result": "> 100", "unit": "µM"},
      {"measurement": "TGI", "setting": "HOP-62 NSCLC", "result": "> 100", "unit": "µM"},
      {"measurement": "TGI", "setting": "SF-295 CNS", "result": "> 100", "unit": "µM"},
      {"measurement": "TGI", "setting": "COLO 205 colon", "result": "> 100", "unit": "µM"},
      {"measurement": "TGI", "setting": "KM12 colon", "result": "> 100", "unit": "µM"},
      {"measurement": "TGI", "setting": "DU-145 prostate", "result": "> 100", "unit": "µM"},
      {"measurement": "TGI", "setting": "CCRF-CEM leukemia", "result": "> 100", "unit": "µM"},
      {"measurement": "TGI", "setting": "OVCAR-3 ovarian", "result": "> 100", "unit": "µM"},
      {"measurement": "TGI", "setting": "SW-620 colon", "result": "> 100", "unit": "µM"},
      {"measurement": "TGI", "setting": "IGROV1 ovarian", "result": "> 100", "unit": "µM"},
      {"measurement": "TGI", "setting": "MDA-N", "result": "> 100", "unit": "µM"},
      {"measurement": "TGI", "setting": "HCT-15 colon", "result": "> 100", "unit": "µM"},
      {"measurement": "TGI", "setting": "UACC-257 melanoma", "result": "> 100", "unit": "µM"},
      {"measurement": "TGI", "setting": "HOP-92 NSCLC", "result": 54.8, "unit": "µM"},
      {"measurement": "TGI", "setting": "SK-MEL-28 melanoma", "result": "> 100", "unit": "µM"},
      {"measurement": "TGI", "setting": "OVCAR-5 ovarian", "result": "> 100", "unit": "µM"},
      {"measurement": "TGI", "setting": "UO-31 renal", "result": "> 100", "unit": "µM"},
      {"measurement": "TGI", "setting": "NCI-H226 lung", "result": "> 100", "unit": "µM"},
      {"measurement": "TGI", "setting": "SK-OV-3 ovarian", "result": "> 100", "unit": "µM"},
      {"measurement": "TGI", "setting": "HCT-116 colon", "result": "> 100", "unit": "µM"},
      {"measurement": "TGI", "setting": "EKVX NSCLC", "result": "> 100", "unit": "µM"},
      {"measurement": "TGI", "setting": "ACHN renal", "result": "> 100", "unit": "µM"},
      {"measurement": "TGI", "setting": "SF-268 CNS", "result": "> 100", "unit": "µM"},
      {"measurement": "TGI", "setting": "SN12C renal", "result": "> 100", "unit": "µM"},
      {"measurement": "TGI", "setting": "MALME-3M melanoma", "result": "> 100", "unit": "µM"},
      {"measurement": "TGI", "setting": "SNB-19 CNS", "result": "> 100", "unit": "µM"},
      {"measurement": "TGI", "setting": "HT29 colon", "result": "> 100", "unit": "µM"},
      {"measurement": "TGI", "setting": "HL-60(TB) leukemia", "result": "> 100", "unit": "µM"},
      {"measurement": "TGI", "setting": "UACC-62 melanoma", "result": "> 100", "unit": "µM"},
      {"measurement": "TGI", "setting": "TK-10 renal", "result": "> 100", "unit": "µM"},
      {"measurement": "TGI", "setting": "RXF 393 renal", "result": "> 100", "unit": "µM"},
      {"measurement": "TGI", "setting": "M14 melanoma", "result": "> 100", "unit": "µM"},
      {"measurement": "TGI", "setting": "MCF7 breast", "result": "> 100", "unit": "µM"},
      {"measurement": "TGI", "setting": "CAKI-1 renal", "result": "> 100", "unit": "µM"},
      {"measurement": "TGI", "setting": "T-47D breast", "result": "> 100", "unit": "µM"},
      {"measurement": "TGI", "setting": "HS 578T breast", "result": "> 100", "unit": "µM"},
      {"measurement": "TGI", "setting": "HCC-2998 colon", "result": "> 100", "unit": "µM"},
      {"measurement": "TGI", "setting": "OVCAR-4 ovarian", "result": "> 100", "unit": "µM"},
      {"measurement": "TGI", "setting": "MDA-MB-435", "result": "> 100", "unit": "µM"}
    ]}
  ]
}
